Data reported in US20180311194A1, “APPLICATION OF TRANILAST IN PREPARATION OF DRUG TREATING SCLEREDEMA DIABETICORUM” (THE FIRST AFFILIATED HOSPITAL OF NANJING MEDICAL UNIVERSITY, priority 2016, published 2018).

What was measured:
[1] = test system: IgE antibody-induced cutaneous anaphylaxis; settings: rats; cited from earlier work
type I collagen mRNA = settings: human dermal fibroblasts; cited from earlier work
experimental asthma = settings: rats; cited from earlier work
fibroblast = assay: Secretion and synthesis of mucin by fibroblast; format: cell-based; settings: initially found
[2] = test system: patients with scleredema diabeticorum; assay: Clinical oral treatment of patients with scleredema diabeticorum, skin thickness by B-ultrasound; format: in vivo, human; settings: for skin thickness measured by B-ultrasound: back skin
Source text: FIG. 1 is a B-ultrasonography of a patient before medication (a and b are different parts of the affected skin).
1. Mode of administration: oral, tranilast 0.1 g, 3 times a day, every 3 months for a course of treatment, a total of two courses.

[3] = 3 patients, tranilast capsule 0.1, 3 times a day orally, after 3 months
[4] = patients with scleredema diabeticorum, after 3 months of application

blood routine examination, routine urine examination, and biochemical detection ([2]; tranilast capsule 0.1, 3 times a day orally, 3 months): no obvious abnormalities
Compound: COc1ccc(/C=C/C(=O)Nc2ccccc2C(=O)O)cc1OC [tranilast]
effect on IgE antibody-induced cutaneous anaphylaxis [1]: significant inhibitory effect
TGF-β-induced upregulation of type I collagen mRNA expression and basal level of type I collagen mRNA (type I collagen mRNA): able to suppress
effect on experimental asthma (experimental asthma): significant inhibitory effect
secretion and synthesis of mucin by fibroblast (fibroblast): inhibiting
local skin erythema [2, 3]: subsided significantly
uncomfortable symptom of conscious hardening [2, 3]: significantly relieved
therapeutic effect on scleredema diabeticorum ([2]; clinical results): good therapeutic effect
skin thickness measured by B-ultrasound ([2]; patient Example 1, person, after 3 months of oral administration, before 6.5 mm): 6 mm
skin thickness measured by B-ultrasound ([2]; patient Example 2, person, 0.1 three times a day, after 3 months, before 8 mm): 6 mm
skin thickness measured by B-ultrasound ([2]; patient Example 3, person, 0.1 three times a day, after 3 months, before 8.5 mm): 5.9 mm
thickness of the surrounding skin (B-ultrasonography) ([2]; patient, after 3 months of medication, before medication 3.6 mm): 3.0 mm
thickness of the thickest part of skin on the right side (back of the neck, B-ultrasonography) ([2]; patient, after 3 months of medication, before medication about 7.5 mm): about 6.3 mm
thickness of the thickest part of the skin on the left side (back of the neck, B-ultrasonography) ([2]; patient, after 3 months of medication, before medication about 8.7 mm): about 6.8 mm
reduction of maximum skin thickness (B-ultrasound) ([2]; patient, after 3 months of treatment, before treatment 7.8 to 8.7 mm): 2 mm
adverse reactions [2, 4]: no significant adverse reactions were observed
symptoms in clinical practice [2, 4]: significantly relieved
thickness of the skin detected by B-ultrasound [2, 4]: significantly thinner
skin change in further treated cases ([2]; several further cases): skin thinning
